Measured values taken from patent publication US20020150540A1, “Allergen neutralization compositions containing aluminum ions” (priority 2001, published 2002).

What was measured:
Der f 2 = target: T1, Der f 2 (Dermatophagoides farinae, UniProt Q00855); test: ELISA efficacy determination protocol, allergen neutralization versus Der f 2; type: biochemical; details: 0.26 wt.% active ion in composition before sample preparation, pH 3.5, normalized to water control
T1 construct: Add 1.0 ml of 20 ug/ml Dermatophagoides farinae mite extract; from tissue; host or cells: Dermatophagoides farinae mite extract (crude)
Description: (§1) The efficacy of an allergen neutralization composition can be determined by the ELISA protocol. Enzyme-linked immunosorbent assay (“ELISA”) is a highly sensitive assay technique for detection and measurement of antigens or antibodies in solution. The assay uses enzyme-linked antigens or antibodies to amplify an antigen-antibody reaction. A single enzyme-linked antibody-antigen complex can convert orders of magnitude more of colorless substrate molecules into detectable colored products, thus considerably amplifying the original antigen-antibody reaction. The antigen or antibody is adsorbed onto the surface of the well of a microtiter plate, and all the relevant reactions take place in solution inside the well. While the following protocol will be easily understood by those skilled in the art, for a more detailed explanation please see Konishi, E. and Uehara, K. Enzyme-linked immunosorbent assay for quantifying antigens of Dermatophagoides farinae and D. pteronyssinus (Acari: Pyroglyphidae) in house dust samples, 1990, Entomologist Society of America, 27 (6), p. 993-998.
(§2) It is understood that those skilled in the art of allergen suppression will be aware of numerous variations to the protocol given below. For example, the monoclonal antibody may be substituted with a similar antibody, for example Der f 1 for Der f 2. But a standard, in this case water, is used and the results for the samples that contain active ingredients are normalized against the standard and the results reported as percentage of allergen remaining. That is, the amount of allergen that is not neutralized. Thus, the allergen neutralization results for similar, but not identical antibodies should be substantially the same when normalized to the standard. Both Der f 1 and Der f 2 were tested for various compositions. Der f 1 was chosen as the standard for the present Efficacy Determination Protocol.
(§3) At least two samples are prepared. One sample contains only distilled water and samples of one or more allergen neutralization compositions containing the allergen neutralization active, for example Al2(SO4)3, tannin, etc. The samples are all treated according to the same protocol, and the distilled water sample is used as the control. All samples are prepared as follows:
(§4) 1) Add 1.0 ml of 20 ug/ml Dermatophagoides farinae mite extract to 0.8 ml of the sample composition (either the allergen neutralization composition or water for the control). Mix well and let sit for 1 hour at room temp.
(§5) 2) Add 2.2 ml of 20% skim milk in Phosphate Buffer Saline (PBS).
(§6) 3) Mix well by vortexing and centrifuge at 12000 rpm (approx. 17000×g) for 1 hour.
(§7) 4) The supernatant is used for the ELISA protocol.
(§8) Each well of a microplate is coated at 4° C. overnight with 100 μl of Der f 2 monoclonal antibody (clone 15E11, from Asahi Breweries., AB-A-4) at a protein concentration of 2 μg per ml of Phosphate Buffer Saline (PBS), pH 7.4 containing 0.1% sodium azide. The monoclonal antibody is discarded and the plate is incubated with 100 μl of 1% BSA PBS containing 0.1% sodium azide for 1 hour. The plate is washed 3 times with PBS containing 0.05% Tween 20 (PBS-T). 100 μl of an allergen sample is added and incubated for 1 hour at 37° C.
(§9) Use 3×dilutions of a reference Dermatophagoides farinae crude extract (commercially available from LSL) to make the standard curve. The curve is made using 6.9 nanogram-mite extract equivalent/ml to 5 microgram-mite extract equivalent/ml. Wash plate with PBS-T for 3 times. 100 μl of Horse Radish Peroxidase (HRP) conjugated anti Der f 2 antibody (clone 13A4) is added at 40 ng/ml and the plate is incubated at 37° C. for 1 hour. The plate is then washed with PBS-T 3 times and then washed with water 3 times. The wells are incubated with 100 μl of o-phenylene diamine at 2.0 mg/ml of 0.1M phosphate buffer (pH 6.2) containing 0.03% H2O2. The enzyme reaction is terminated by adding 50 μl of 2 M H2SO4.
(§10) The absorbance of the sample is read at 490 nm with a cell length of 1 cm. […]

Der f 1 = target: T2, Der f 1 (Dermatophagoides farinae, UniProt P16311); test: ELISA efficacy determination protocol, allergen neutralization versus Der f 1; type: biochemical; details: for % of Allergen Neutralized: Versus Der f 1, 0.26 wt.% active ion in composition before sample preparation, pH 3.5, normalized to water control
T2 construct: Add 1.0 ml of 20 ug/ml Dermatophagoides farinae mite extract; from tissue; host or cells: Dermatophagoides farinae mite extract (crude)
T2 sequence (P16311 99-321): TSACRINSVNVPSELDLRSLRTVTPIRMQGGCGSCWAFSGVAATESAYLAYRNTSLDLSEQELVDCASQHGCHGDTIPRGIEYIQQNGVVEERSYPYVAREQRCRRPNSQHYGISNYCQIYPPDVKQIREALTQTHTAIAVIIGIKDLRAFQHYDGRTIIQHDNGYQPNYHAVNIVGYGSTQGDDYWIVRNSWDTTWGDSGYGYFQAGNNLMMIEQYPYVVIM
Description: as §1, §2, §3, §4, §5, §6, §7, §8, §9, §10

T1 sequence (Q00855 18-146): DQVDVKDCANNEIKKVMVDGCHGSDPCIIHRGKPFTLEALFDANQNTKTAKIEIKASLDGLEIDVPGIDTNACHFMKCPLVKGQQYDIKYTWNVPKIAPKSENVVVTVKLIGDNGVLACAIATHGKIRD

Compound | % of Allergen Neutralized (Der f 2) [%] | % of Allergen Neutralized (Der f 1) [%] | performance at deactivating dust mite allergens (Der f 1; statement in words on Table I)
O=S(=O)([O-])[O-].O=S(=O)([O-])[O-].O=S(=O)([O-])[O-].[Al+3].[Al+3] [Al2(SO4)3] | 6 | 66 | –
CC(O)C(=O)[O][Al]([O]C(=O)C(C)O)[O]C(=O)C(C)O (stereo not shown) [Al Lactate, reference compound] | 17 | 30 | –
O=[N+]([O-])[O-].O=[N+]([O-])[O-].O=[N+]([O-])[O-].[Al+3] [Al(NO3)3] | 50 | 93 | –
[Cl][Al]([Cl])[Cl] [AlCl3] | 17 | 85 | –
O=S(=O)([O-])[O-].O=S(=O)([O-])[O-].[Al+3].[K+] [AlK(SO4)2] | 23 | 65 | –
aluminum chlorohydrate [Al(OH)Cl2, reference compound] | 3 | 59 | relatively poor performance
